{"source": "patent US20190328753A1", "about": "“COMPOSITIONS AND METHODS FOR TREATING OCULAR DISEASES” (priority 2015, published 2019)", "key": {"[1]": {"system": "Corneal epithelial cells", "experiment": "Lipid production in corneal epithelial cells, dilutions of 3 mg/ml formulation, Oil Red O (Example 6)", "assay_type": "cell-based", "conditions": "ninth day", "experimental": "Corneal epithelial cells were cultured in vitro and treated with 0.03 mg/ml and other dilutions of a 3 mg/ml formulation of Spironolactone (100× (0.03 mg/ml), 200× (0.015 mg/ml), 500× (0.006 mg/ml), and 1000× (0.003 mg/mI)). The corneal epithelial cells were cultured in vitro to about 10-20% confluence. The cell medium with added spironolactone was changed every 2-3 days. On the ninth day, the cells were stained for lipids with Oil Red O."}, "[2]": {"experiment": "Solubility of spironolactone", "assay_type": "physicochemical", "conditions": "with the help of Pluronic F127", "experimental": "The present inventors were able to get spironolactone into solution at 0.015 mg/ml with the help of Pluronic F127."}}}
{"smiles": "CC(=O)SC1CC2=CC(=O)CCC2(C)C2CCC3(C)C(CCC34CCC(=O)O4)C12", "note": "(stereo not drawn) [spironolactone, 7α-acetylthio-3-oxo-17α-pregn-4-ene-21,17-carbolactone]", "values": [{"measurement": "lipid production (Oil Red O)", "setting": "[1]; 0.006 mg/ml (500× dilution)", "value": "enhanced lipid production"}, {"measurement": "lipid production (Oil Red O)", "setting": "[1]; 0.015 mg/ml (200× dilution)", "value": "enhanced lipid production"}, {"measurement": "lipid production (Oil Red O)", "setting": "[1]; 0.03 mg/ml (100× dilution)", "value": "enhanced lipid production"}, {"measurement": "concentration brought into solution", "setting": "[2]", "value": 15000, "unit": "ng/mL"}]}
